Type in all cases: cell-based
The subject of experiment [1] is Staphylococcus aureus SA1199B. As to the method: (§1) The MIC's were determined using a standard broth micro-dilution assay.
For experiment [2], the system named is Staphylococcus aureus S13E. As to the method:
as §1

Experiment [3] deals with Entercoccus faecalis 276. As to the kind of experiment: MIC, standard broth micro-dilution assay. As to the method:
(§2) The formula I compounds have in vitro and in vivo activity against Gram-positive pathogenic bacteria. The MIC's were determined using a standard broth micro-dilution assay.
A general note: Dilution methods test growth across graded concentrations, often in twofold steps.

The test system of experiment [4] is Entercoccus gallinarum 245. Kind of experiment: MIC, standard broth micro-dilution assay. As to the method: as §2
The test system of experiment [5] is Entercoccus faecalis 2041. Kind of experiment: MIC, standard broth micro-dilution assay. As to the method: as §2
Experiment [6] deals with Pedicoccus acidilacti. Kind of experiment: MIC, agar dilution on brain-heart infusion agar. Particulars: Pedioccccus acidilacti (mean of 10).
For experiment [7], the system named is Leuconostoc lactis. As to the kind of experiment: MIC, agar dilution on brain-heart infusion agar. Particulars: Leuconostoc lactis (mean of 2).
Experiment [8] concerns Pediococcus pentosaceus. Kind of experiment: MIC, agar dilution on brain-heart infusion agar. To be noted: Pediococcus pentosaceus (mean of 2). (In general: Agar dilution tests growth on a series of plates holding different concentrations.)
The test system of experiment [9] is Lactobacillus confusus. As to the kind of experiment: MIC, agar dilution on brain-heart infusion agar.
Experiment [10] deals with Leuconostoc mesenteroides. Kind of experiment: MIC, agar dilution on brain-heart infusion agar. Particulars: Leuconostoc mesenteroides (mean of 4).
Experiment [11] deals with Haemophilus influenzae RD. As to the kind of experiment: MIC, standard broth micro-dilution assay. As to the method:
as §1

Experiment [12] relates to Staphylococcus aureus 491. As to the kind of experiment: MIC, standard broth micro-dilution assay. As to the method:
as §1

Experiment [13] deals with Staphylococcus epidermidis 270. As to the kind of experiment: MIC, standard broth micro-dilution assay. As to the method:
as §1

Values after ≈ are worked out from the molar mass of the structure shown.

As for “2-[4-chlorophenyl]-6-benzoxazolemethyl [Compound 116]”, the MIC was 0.5 µg/mL in experiment [1]; 1 µg/mL in [2]; 0.25 µg/mL in experiment [3]; 4 µg/mL in experiment [4]; ≤ 0.06 µg/mL in experiment [5].
In the same order, the values of “4-[2-[2-thiopropyl]ethoxy]benzyl [Compound 134]” are 2 µg/mL, 2 µg/mL, 1 µg/mL, 4 µg/mL and 0.25 µg/mL.
With “4-[2-chloro-6-fluorobenzyloxy]benzyl [Compound 80]”, the MIC was 1 µg/mL in [1]; 1 µg/mL in experiment [2]; ≤ 0.06 µg/mL in experiment [3]; ≤ 0.06 µg/mL in experiment [4]; ≤ 0.06 µg/mL in [5].
With `CNC(CC(C)C)C(=O)NC1C(=O)NC(CC(N)=O)C(=O)NC2C(=O)NC3C(=O)NC(C(=O)NC(C(=O)O)c4cc(O)cc(O)c4-c4cc3ccc4O)C(OC3CC(C)(N)C(O)C(C)O3)c3ccc(c(Cl)c3)Oc3cc2cc(c3OC2OC(CO)C(O)C(O)C2OC2CC(C)(NCc3ccc4ccccc4c3)C(O)C(C)O2)Oc2ccc(cc2Cl)C1O` (centres unmarked) [Compound 1, 2-naphthylmethyl], the MIC in experiment [6] was 18 µg/mL (≈ 10.4 µM); in [7], 23 µg/mL (≈ 13.3 µM); in experiment [3], ≤ 0.06 µg/mL; in experiment [4] it was 4 µg/mL (≈ 2.31 µM); in experiment [8] it was 23 µg/mL (≈ 13.3 µM).
In the case of `CNC(CC(C)C)C(=O)NC1C(=O)NC(CC(N)=O)C(=O)NC2C(=O)NC3C(=O)NC(C(=O)NC(C(=O)O)c4cc(O)cc(O)c4-c4cc3ccc4O)C(OC3CC(C)(N)C(O)C(C)O3)c3ccc(c(Cl)c3)Oc3cc2cc(c3OC2OC(CO)C(O)C(O)C2OC2CC(C)(NCc3cccc4c3oc3ccccc34)C(O)C(C)O2)Oc2ccc(cc2Cl)C1O` (centres unmarked) [Compound 39, 4-[1-oxa]fluorenylmethyl], the MIC in experiment [6] was 26 µg/mL (≈ 14.7 µM); in [9] it was 32 µg/mL (≈ 18.1 µM); in experiment [10], 32 µg/mL (≈ 18.1 µM); in experiment [7], 32 µg/mL (≈ 18.1 µM); in experiment [3], ≤ 0.06 µg/mL; in experiment [4], ≤ 0.06 µg/mL. The MIC in experiment [5] was ≤ 0.06 µg/mL; in experiment [8], 32 µg/mL (≈ 18.1 µM).
In the case of `CNC(CC(C)C)C(=O)NC1C(=O)NC(CC(N)=O)C(=O)NC2C(=O)NC3C(=O)NC(C(=O)NC(C(=O)O)c4cc(O)cc(O)c4-c4cc3ccc4O)C(OC3CC(C)(N)C(O)C(C)O3)c3ccc(c(Cl)c3)Oc3cc2cc(c3OC2OC(CO)C(O)C(O)C2OC2CC(C)(NCc3cc(OCc4ccccc4)ccc3OC)C(O)C(C)O2)Oc2ccc(cc2Cl)C1O` (centres unmarked) [Compound 51, 3-benzyloxy-6-methoxy benzyl], the MIC was 87 µg/mL (≈ 47.8 µM) in experiment [6]; 76 µg/mL (≈ 41.8 µM) in experiment [10]; ≤ 0.06 µg/mL in experiment [3]; 1 µg/mL (≈ 0.55 µM) in experiment [4]; ≤ 0.06 µg/mL in experiment [5]; 91 µg/mL (≈ 50 µM) in experiment [8].
`CNC(CC(C)C)C(=O)NC1C(=O)NC(CC(N)=O)C(=O)NC2C(=O)NC3C(=O)NC(C(=O)NC(C(=O)O)c4cc(O)cc(O)c4-c4cc3ccc4O)C(OC3CC(C)(N)C(O)C(C)O3)c3ccc(c(Cl)c3)Oc3cc2cc(c3OC2OC(CO)C(O)C(O)C2OC2CC(C)(NCc3ccc4cc(C)ccc4c3)C(O)C(C)O2)Oc2ccc(cc2Cl)C1O` (centres unmarked) [Compound 189]: the MIC in experiment [11] was > 64 µg/mL; in experiment [4] it was 1 µg/mL (≈ 0.573 µM); in [5] it was ≤ 0.06 µg/mL.
As to `CNC(CC(C)C)C(=O)NC1C(=O)NC(CC(N)=O)C(=O)NC2C(=O)NC3C(=O)NC(C(=O)NC(C(=O)O)c4cc(O)cc(O)c4-c4cc3ccc4O)C(OC3CC(C)(N)C(O)C(C)O3)c3ccc(c(Cl)c3)Oc3cc2cc(c3OC2OC(CO)C(O)C(O)C2OC2CC(C)(NCc3ccc(NC(=O)c4cccc(F)c4)cc3)C(O)C(C)O2)Oc2ccc(cc2Cl)C1O` (centres unmarked) [Compound 194, 4-[(3-fluorobenzoyl)amino]benzyl], the MIC was 32 µg/mL (≈ 17.6 µM) in [11], 2 µg/mL (≈ 1.1 µM) in experiment [4] and ≤ 0.06 µg/mL in experiment [5].
Regarding `CNC(CC(C)C)C(=O)NC1C(=O)NC(CC(N)=O)C(=O)NC2C(=O)NC3C(=O)NC(C(=O)NC(C(=O)O)c4cc(O)cc(O)c4-c4cc3ccc4O)C(OC3CC(C)(N)C(O)C(C)O3)c3ccc(c(Cl)c3)Oc3cc2cc(c3OC2OC(CO)C(O)C(O)C2OC2CC(C)(NCCCCCCCCOc3ccc(Oc4ccccc4)cc3)C(O)C(C)O2)Oc2ccc(cc2Cl)C1O` (centres unmarked) [Compound 202], the MIC in experiment [12] worked out at 8 µg/mL (≈ 4.24 µM); in [3], 4 µg/mL (≈ 2.12 µM); in experiment [4] it was 8 µg/mL (≈ 4.24 µM); in [5], 1 µg/mL (≈ 0.529 µM).
On to `C=CCCCCCCCCCNC1(C)CC(OC2C(Oc3c4cc5cc3Oc3ccc(cc3Cl)C(OC3CC(C)(N)C(O)C(C)O3)C3NC(=O)C(NC(=O)C5NC(=O)C(CC(N)=O)NC(=O)C(NC(=O)C(CC(C)C)NC)C(O)c5ccc(c(Cl)c5)O4)c4ccc(O)c(c4)-c4c(O)cc(O)cc4C(C(=O)O)NC3=O)OC(CO)C(O)C2O)OC(C)C1O` (centres unmarked) [Compound 204, 10-undecenyl], for which the MIC in [12], in experiment [3] and in experiment [5] was ≤ 0.06 µg/mL each time.
Turning to `CNC(CC(C)C)C(=O)NC1C(=O)NC(CC(N)=O)C(=O)NC2C(=O)NC3C(=O)NC(C(=O)NC(C(=O)O)c4cc(O)cc(O)c4-c4cc3ccc4O)C(OC3CC(C)(N)C(O)C(C)O3)c3ccc(c(Cl)c3)Oc3cc2cc(c3OC2OC(CO)C(O)C(O)C2OC2CC(C)(NCc3ccc(-c4ccccc4C)cc3)C(O)C(C)O2)Oc2ccc(cc2Cl)C1O` (centres unmarked) [Compound 209], the MIC in [13] is 0.125 µg/mL (≈ 0.0705 µM); in experiment [4], 1 µg/mL (≈ 0.564 µM); in [5], ≤ 0.06 µg/mL.

The record behind these values is patent US5843889A, “Glycopeptide antibiotic derivatives” (Eli Lilly and Company, priority 1997, dated 1998).
